“Also recorded” adds a separate entry of the source.
Key:
hrpA promoter (T3SS) [1] = experiment: hrpA promoter-probe phrpA in Erwinia amylovora 273, flow cytometry; format: cell-based; details: Ea273 (phrpA), HIM + 100 μM compound
Summary of the method: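 Erwinia amylovora 273 carrying an hrpA promoter–GFP fusion (pPROBE-NT) was grown in hrp-inducing medium with 100 μM compound or DMSO. Promoter activity read as GFP intensity by flow cytometry at 6 h and 9 h.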

rsmB RNA = experiment: Northern blot analysis of rsmB RNA; format: cell-based, D. dadanti 3937; details: bacterial cells cultured in media supplemented with compound (FIG. 23)
Excerpt: Northern blot analysis was used to quantify rsmB RNA of D. dadanti 3937.

hrpA promoter (T3SS) [2] = experiment: GFP reporter plasmid phrpA, flow cytometry (FACS) of hrpA promoter activity; format: cell-based, Dickeya dadantii 3937; details: for mean fluorescence intensity of GFP, hrpA expression: D. dadantii 3937 (phrpA), MM + 100 μM compound
Summary of the method: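 D. dadantii (Ech) 3937 carrying the phrpA promoter–GFP transcriptional fusion was grown in T3SS minimal medium with 100 μM compound, starting from an inoculum of OD600 1.0. GFP was read by flow cytometry at 12 and 24 h. Values are mean fluorescence intensity of three replicates ± SD, with compound-free MM as control.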

hrpS promoter = experiment: GFP reporter plasmid phrpS, flow cytometry of hrpS promoter activity; format: cell-based, Dickeya dadantii 3937; details: reporter plasmid phrpS
Protocol: FACS analysis of promoter activity of dspE, hrpA, hrpL, hrpN, and hrpS was carried out as described (Peng et al., 2006). Briefly, the wild-type Ech3937 and the mutant strains carrying the promoter reporter plasmid were grown on LB broth at 28° C. overnight and transferred to appropriate media. For FACS analysis, samples were collected by centrifugation, washed with 1× phosphate buffer saline (PBS) at 13,000 rpm for 1 min, and re-suspended in 1×PBS to ca 10^6 CFU/ml prior to being run in a FACS Calibur flow cytometer (BD Biosciences, CA). Three replicates were performed for each treatment.
To test for an inhibitory effect on T3SS hrpS expression, the reporter plasmid phrpS was used to measure the effects of these compounds on hrpA expression.

COc1ccc(/C=C/C(=O)NO)cc1 [Compound 125, trans-4-Methoxycinnamohydroxamic acid]
Avg MFI ± SD, hrpA expression (hrpA promoter (T3SS) [1]; 6 h): 215.5 ± 6.5 | Avg MFI ± SD, hrpA expression (hrpA promoter (T3SS) [1]; 9 h): 230.0 ± 4.4 | rsmB RNA level, Northern blot, in words (rsmB RNA): reduced rsmB mRNA | mean fluorescence intensity of GFP, hrpA expression (hrpA promoter (T3SS) [2]; 12 h): 17.4 ± 0.9 | mean fluorescence intensity of GFP, hrpA expression (hrpA promoter (T3SS) [2]; 24 h): 25.6 ± 2.0 | inhibitory activity on T3SS gene (hrpA) expression, in words (hrpA promoter (T3SS) [2]; D. dadantii 3937, reporter plasmid phrpA, 100 μM): showed inhibitory effect; also recorded: potent inhibitory activity | minimal effective concentration (hrpA promoter (T3SS) [2]; Dickeya dadantii, read-out: minimal inhibitory concentration on hrpA expression (concentration showing inhibitory effect)): 100 µM | Mean Fluorescence Intensity of GFP (hrpA, phrpA) (hrpA promoter (T3SS) [2]; Trial 2, MM supplemented with compound at 100 μM): 25.9 ± 1.0 | inhibitory effect on T3SS hrpS expression, in words (hrpS promoter): inhibited hrpS
